From patent US7105572B2, “Stable emulsion compositions” (Takeda Pharmaceutical Company Limited, priority 2000, dated 2006)

Key:
[1] = test system: nitric oxide concentration (NOx) in blood; test: Effect on increase of nitric oxide concentration (NOx) in blood of LPS-treated mice; type: in vivo, BALB/c mice; settings: 30 mg/kg orally, 1 hour before LPS 10 mg/kg i.p.; serum 6 hours after LPS; vs control group
[2] = test system: NO production by RAW264.7 cell; test: NO production-inhibiting effect in RAW264.7 cells stimulated with LPS and interferon-gamma; type: cell-based, mouse; settings: LPS 5 ng/ml + interferon-gamma 1 U/ml, nitrite ion in culture supernatant, compounds 1 and 3: minimum and maximum of 7 and 9 tests
Experimental: Mouse macrophage cell line RAW264.7 was used as an iNOS-inducible cell and a test compound was examined for its % inhibition of NO production. The test compound was dissolved at the concentration of 10 mM in N,N-dimethylformamide and diluted with an RPMI-1640 medium at the concentration of 0.1 mM. The concentration was further adjusted using the medium, so that a final concentration ranging from 10 μM to 10 nM could be obtained by a 10-fold serial dilution, and the test compound was added to a culture medium. […] at 5×10^5/ml with 10% inactivated fetal calf serum in an RPMI-1640 medium and inoculated to a 96-well plate at 1×10^5 cells/0.2 ml per well. After incubating at 37° C. under an atmosphere of 5% CO2/95% air overnight, the test compound adjusted as described above was added and then LPS and interferon-gamma were added at the final concentrations of 5 ng/ml and 1 U/ml, respectively. […] The nitrite ion concentration was determined by adding 25 μl of 20 μg/ml of 2,3-diaminonaphthalene (DAN) to 50 μl of the culture supernatant, followed by incubating at room temperature for 10 minutes, followed by adding 25 μl of 0.5 N NaOH, followed by determining a fluorescence at 450 nm (excitation wavelength: 365 nm). […]

IL-1β = test: Effect on increase of cytokine concentration in blood of LPS-treated mice: IL-1β; type: in vivo, BALB/c mice; settings: 30 mg/kg orally, 1 hour before LPS 10 mg/kg i.p.; serum 6 hours after LPS
Experimental: (§1) As a result of a defense mechanism against an infection and the like or an immune abnormality, various cytokines are produced in vivo. Accordingly, an experimental animal was used to examine the effect of a test compound on the increase cytokine concentration in blood.
(§2) Female BALB/c mice (6 weeks old) were purchased and acclimatized for 1 week and assigned to the groups in each of which 6 to 8 animals were included. In a treatment group, 30 mg/kg of a test compound suspended in a 0.5% aqueous methyl cellulose solution was given orally. In a control group, the vehicle was given similarly. After 1 hour, LPS (10 mg/kg) was given intraperitoneally to each animal in the treatment and control groups, and the blood was taken 1 hour after the LPS administration and examined for concentrations of TNF-α in the serum. IL-1α, IL-1β and IL-6 concentrations were determined using the serum from the blood taken 6 hours after the LPS administration. Each cytokine was determined using an assay kit manufactured by Amersham.

IL-1α = test: Effect on increase of cytokine concentration in blood of LPS-treated mice: IL-1α; type: in vivo, BALB/c mice; settings: 30 mg/kg orally, 1 hour before LPS 10 mg/kg i.p.; serum 6 hours after LPS
Experimental: as §1, §2

IL-6 = test: Effect on increase of cytokine concentration in blood of LPS-treated mice: IL-6; type: in vivo, BALB/c mice; settings: 30 mg/kg orally, 1 hour before LPS 10 mg/kg i.p.; serum 6 hours after LPS
Experimental: as §1, §2

TNF-α = test: Effect on increase of cytokine concentration in blood of LPS-treated mice: TNF-α; type: in vivo, BALB/c mice; settings: 30 mg/kg orally, 1 hour before LPS 10 mg/kg i.p.; serum 1 hour after LPS
Experimental: as §1, §2

With CCOC(=O)C1=CCCCC1S(=O)(=O)Nc1ccc(F)cc1F (centres unmarked) [Compound 3, ethyl 6-[N-(2,4-difluorophenyl)sulfamoyl]-1-cyclohexene-1-carboxylate] as the molecule, how does the “NOx inhibition (%) in blood” value [1] read?
The value was 90%.

How did the IC50 ([2]; Mus musculus) turn out when CCOC(=O)C1=CCCCC1S(=O)(=O)Nc1cccc(F)c1 (centres unmarked) [Compound 11, ethyl 6-[N-(3-fluorophenyl)sulfamoyl]-1-cyclohexene-1-carboxylate] was run?
The IC50 was 0.31 µM.

What does the source list for CCOC(=O)C1=CCCCC1S(=O)(=O)Nc1ccc(Cl)cc1F (centres unmarked) [Compound 1, ethyl 6-[N-(4-chloro-2-fluorophenyl)sulfamoyl]-1-cyclohexene-1-carboxylate]?
cytokine inhibition (%) in blood IL-1β (IL-1β): 73%; NOx inhibition (%) in blood [1]: 76%; cytokine inhibition (%) in blood IL-1α (IL-1α): 97%; cytokine inhibition (%) in blood IL-6 (IL-6): 89%; cytokine inhibition (%) in blood TNF-α (TNF-α): 98%

For CCOC(=O)C1=CCCCC1S(=O)(=O)Nc1ccc(F)cc1F (stereo not drawn) [Compound 20, d-ethyl 6-[N-(2,4-difluorophenyl)sulfamoyl]-1-cyclohexene-1-carboxylate], which IC50 [2] is on record?
The IC50 was 0.005 µM.
